Data reported in patent US6570068B1, “Methods for maize transformation coupled with adventitious regeneration utilizing nodal section explants and mature zygotic embryos” (Mississippi State University, priority 1997, dated 2003).

Columns and labels:
corn seedlings = assay: Seedling growth in germination medium with BA; type: in vivo; details: for seedling height versus seedlings without BA: 2.0 mg/l BA in germination medium
Protocol: (§1) In this experiment, the standard germination medium contained 4.3 g/l MS basal salts, DM-Vitamins (1.0 mg/l thiamine-HCl, 0.5 mg/l pyridoxine-HCl, 0.5 mg/l nicotinic acid, 100 mg/l myo-inositol), 30 g/l sucrose, (pH 5.8), and 2.0 mg/l benzyladenine (BA). The standard shoot initiation medium contained 4.3 g/l MS basal salts, DM-vitamins (1.0 mg/l thiamine-HCl, 0.5 mg/l pyridoxine-HCl, 0.5 mg/l nicotinic acid, 100 mg/l myo-inositol), 30 g/l sucrose, 8.0 g/l Phytagar, 0.25 mg/l 4-CPA (para-chlorophenoxyacetic acid), 10 mg/l glycine, 150 mg/l asparagine, and 2.0 mg/l BA. The standard root initiation medium contained 4.3 g/l MS basal salts, DM-vitamins (1.0 mg/l thiamine-HCl, 0.5 mg/l pyridoxine-HCl, 0.5 mg/l nicotinic acid, 100 mg/l myo-inositol), 30 g/l sucrose, 8.0 g/l Phytagar, and ±0.5 mg/l IBA.
As a result, those explants were easier to excise. Explants spanning the seventh node (nodal ridge),with a top excision of 0.5-1.0 mm above the ridge were excised from 4, 7, 14 or 21 day-old seedlings and placed on the shoot initiation medium for 4 weeks. After 4 weeks, 45% of the explants from 7 day-old seedlings (+BA) produced multiple shoot clumps, whereas only 24% of 7 day-old seedlings (−BA) produced multiple shoot clumps. Approximately 3% of the 4 day-old seedlings (+BA) produced multiple shoots. Most explants from older seedlings (14 or 21 days) produced only one elongated shoot or 1 shoot with multiple branches. Once placed on the standard root initiation medium, most shoots (85%) rooted and the plants produced were acclimatized and placed under greenhouse conditions where normal flowering and fruiting were observed. Only one out of 29 plants produced was abnormal (i.e., a dwarf with twisted leaves). The explants should remain on the shoot initiation medium for 4 weeks. It was discovered that if the explants are left on the shoot initiation medium for 8 weeks, floral structures appeared.

nodal ridge explants = assay: Multiple shoot clump formation from nodal ridge explants of seedlings germinated with BA; type: cell-based, corn; details: 2.0 mg/l BA in germination medium, 4 weeks on shoot initiation medium
Protocol: as §1
As a result, those explants were easier to excise. Explants spanning the seventh node (nodal ridge),with a top excision of 0.5-1.0 mm above the ridge were excised from 4, 7, 14 or 21 day-old seedlings and placed on the shoot initiation medium for 4 weeks. After 4 weeks, 45% of the explants from 7 day-old seedlings (+BA) produced multiple shoot clumps, whereas only 24% of 7 day-old seedlings (−BA) produced multiple shoot clumps. Approximately 3% of the 4 day-old seedlings (+BA) produced multiple shoots. […]

c1ccc(CNc2ncnc3nc[nH]c23)cc1 [BA, benzyladenine]
seedling height versus seedlings without BA (corn seedlings; 4 day-old seedlings): taller than those without BA | seedling height versus seedlings without BA (corn seedlings; by 7 days): no appreciable differences in height | roots at the nodal ridge (corn seedlings; seedlings grown with BA): less roots at the nodal ridge | seedlings (explants) that produced multiple shoots (nodal ridge explants; 4 day-old seedlings): Approximately 3% | explants that produced multiple shoot clumps (nodal ridge explants; explants from 7 day-old seedlings): 45%
